Here are results for five molecules from US8404711B2, “5-HT4 receptor agonist compounds for treatment of cognitive disorders” (priority 2009, dated 2013).

The test system of assay [1] is scopolamine-induced cognitive impairment (rat Morris water maze). In words: rat Morris water maze model, scopolamine-induced cognitive impairment. The format is in vivo. The following applies: for effect on scopolamine-induced memory impairment: 0.03 mg/kg plus scopolamine 0.5 mg/kg; for effect on ability of rats to learn platform location when administered alone: no scopolamine; for reversal of scopolamine-induced cognitive impairment with coadministered 5-HT4 antagonist: compound 0.1 mg/kg i.p. plus GR125487 1 mg/kg i.p. and scopolamine 0.5 mg/kg. As for the experimental part: Adult, male Sprague-Dawley rats (body weight range 275-400 g) were handled by the investigator for approximately 5 minutes one day prior to each study. […] A clear Perspex® platform was located in a fixed position 1 cm below the surface of the water, and 34 cm from the wall of the tank. Four visual cues (A4-sized pictures of different black and white symbols) were equally spaced on the wall of the tank, just above the water surface. Black curtains were placed around the tank and white noise was generated throughout the test. Each rat was released into the water, facing the tank wall, at a designated starting point (i.e., at the north side of the tank), and allowed 60 seconds to locate the submerged platform after each placement. The escape latency (in seconds) between release of the rat into the water and its locating the platform was recorded automatically by means of a video camera (San Diego Instrument, CA) and tracking software (SMART software, San Diego Instrument, CA). […] The rats were allowed to remain on the platform for 30 seconds to observe the external visual cues and pair them with the relative position of the platform. The rats were then taken off the platform and dried gently with a paper towel before repeating the test three more times (from south, then east and finally west starting positions). After the fourth test, each rat was placed under a heating lamp for 5 minutes before being returned to its home cage. The entire procedure was repeated on days 2 and 3. Over the three days of testing, rats learned to associate the location of the submerged platform (and their only means to escape the water) with the visual cues. […] The number of crossings of the previous platform location and the time spent by the rat in each quadrant were recorded. Animals that had learned the location of the platform spent more time in the appropriate quadrant and repeatedly crossed that quadrant. By performing the probe test, false positives could be excluded from the analysis (i.e., rats that had previously located the platform via a strategy independent of the visual cues, such as swimming randomly until a leg hit the platform). No animals were excluded based on conflicting data between the three days of testing and the probe test. […] The following statistical tests were performed on the data: […] A two-way repeated-measures ANOVA, followed by a Bonferroni post-hoc test, was used to compare the mean escape latency for each of the three successive test days, with p<0.05 indicating a statistically significant difference. […] Pat. […] Pat. […] Donepezil hydrochloride was purchased from Changzhou Dahua Imp. and Exp. Corp. Ltd. […] Louis, Mo.) or Spectrum Chemical Mfg. Corp. (Gardena, Calif.). GR125487 sulfamate was purchased from Tocris (Ellisville, Mo.). […] Doses were expressed with respect to the free base weights of each compound.

For the next assay, the target named is human 5-HT4(d) receptor (Homo sapiens, UniProt Q13639). In words: cell-based. On the procedure: HEK-293 (human embryonic kidney) cells stably-transfected with human 5-HT4(d) receptor cDNA and human APP695 cDNA (HEK293-5-HT4(d)-APP695) were grown in Dulbecco's Modified Eagles Medium (DMEM) containing D-glucose supplemented with 10% fetal bovine serum, 2 mM GlutaMax-1, and 100 units penicillin (100 μg), and 100 μg/mL streptomycin in a 5% CO2, humidified incubator at 37° C. Cells were grown under continuous selection pressure by the addition of G418 (500 ug/mL) antibiotic.
HEK293-5-HT4(d)-APP695 cells (3×10^5 cells/well) were serum-starved for 4 hr prior to incubation with agonists for 30 min (unless otherwise stated) at 37° C. The culture medium was aspirated, centrifuged to remove cellular debris and the level of sAPPα determined by Western blot. sAPPα was detected using antibody 6E10 (Signet/Covance) and a goat anti-mouse HRP-conjugated 2° antibody. Immunoreactive bands corresponding to sAPPα were visualized and quantified with ECL substrate (Pierce) and a Fluor Chem HD2 image system (Alpha Innotech). Western blot analysis of samples was conducted in duplicate.
Potency data are reported as pEC50 values, the negative decadic logarithm of the EC50 value, where EC50 is the effective concentration for a 50% maximal response. […] To determine EC50 values, data from independent experiments were fit simultaneously to a sigmoidal concentration response curve using Graph Pad Prism software (slope constrained to unity).

Setting [2] is: 0.01 mg/kg plus scopolamine 0.5 mg/kg.
Where [3] appears, read: 0.1 mg/kg plus scopolamine 0.5 mg/kg.
[4] abbreviates: 1 mg/kg plus scopolamine 0.5 mg/kg.

The structures appear in SMILES notation. “Also recorded” adds a separate entry of the source. Where a name gives a salt, the structure may show the parent alone.

Sequence of human 5-HT4(d) receptor (Q13639 1-360 isoform Q13639-3): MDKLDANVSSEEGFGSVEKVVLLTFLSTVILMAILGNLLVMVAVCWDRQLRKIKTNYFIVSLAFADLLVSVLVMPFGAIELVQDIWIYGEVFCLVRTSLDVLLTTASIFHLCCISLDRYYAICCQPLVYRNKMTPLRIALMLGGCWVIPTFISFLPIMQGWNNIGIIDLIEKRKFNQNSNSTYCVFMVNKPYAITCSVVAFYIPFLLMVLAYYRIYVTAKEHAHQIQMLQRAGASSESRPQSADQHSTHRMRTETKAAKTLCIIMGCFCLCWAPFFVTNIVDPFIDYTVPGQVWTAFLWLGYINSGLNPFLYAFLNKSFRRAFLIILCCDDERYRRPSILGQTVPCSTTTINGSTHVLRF

For `CN1[C@@H]2C[C@@H](OC(=O)[C@H](CO)c3ccccc3)C[C@H]1[C@@H]1O[C@@H]12` [Scopolamine, scopolamine hydrochloride, reference compound], the “attenuation of learning versus vehicle” value in assay [1] (0.5 mg/kg i.p., p<0.025) is listed as “statistically significant attenuation of learning”.

Take `CC(C)n1c(=O)c(C(=O)N[C@H]2C[C@H]3CC[C@@H](C2)N3C[C@@H](O)CN(C)S(C)(=O)=O)cc2ccccc21` [Compound 1, 1-isopropyl-2-oxo-1,2-dihydroquinoline-3-carboxylic acid {(1S,3R,5R)-8-[(R)-2-hydroxy-3-(methanesulfonyl-methyl-amino)propyl]-8-azabicyclo[3.2.1]oct-3-yl}amide]: in assay [1] (setting [2]), the “effect on scopolamine-induced cognitive decline when administered alone” value is “Neither compound 1 at a dose of 0.01 mg/kg nor donepezil at a dose of 0.1 mg/kg were found to have a significant effect”. Besides, the “effect on scopolamine-induced memory impairment” value in assay [1] was “attenuated the memory impairment”. Moreover, the “effect on scopolamine-induced memory impairment, mean escape latency day 3” value in assay [1] (setting [3]) is given as “achieved statistical significance”; in assay [1] (setting [4]), “attenuated the memory impairment”; in assay [1] (1 mg/kg plus scopolamine 0.5 mg/kg, listed as compound 1), “had no effect”. In assay [1] (1 mg/kg i.p.), the “effect on ability of rats to learn platform location when administered alone” value (from here on “effect on ability of rats”) is listed as “had no effect”. Besides, the “reversal of scopolamine-induced cognitive impairment with coadministered 5-HT4 antagonist” value in assay [1] was “abolished”.

Turning to `COc1[nH]c2ccc(F)cc2c1C(=O)OCC1CCN(CCNS(C)(=O)=O)CC1` [GR125487, reference compound], in assay [1] (GR125487 1 mg/kg i.p. alone), the “effect in Morris water maze when administered alone” value is reported as “had no effect”.

With `COc1cc2c(cc1OC)C(=O)C(CC1CCN(Cc3ccccc3)CC1)C2` (stereo not shown) [donepezil, donepezil hydrochloride, reference compound], in assay [1] (0.1 mg/kg plus scopolamine 0.5 mg/kg, hydrochloride), the “effect on scopolamine-induced cognitive decline when administered alone” value was “Neither compound 1 at a dose of 0.01 mg/kg nor donepezil at a dose of 0.1 mg/kg were found to have a significant effect; also recorded: Neither compound 2 at a dose of 0.01 mg/kg nor donepezil at a dose of 0.1 mg/kg were found to have a significant effect”. The “reversal of scopolamine-induced cognitive deficit, mean escape latency day 3” value is “statistically significant reversal” in assay [1] (3 mg/kg i.p. plus scopolamine 0.5 mg/kg) and “dose-dependent manner” in assay [1] (0.3-3 mg/kg i.p. plus scopolamine 0.5 mg/kg i.p.). The “effect on ability of rats” value in assay [1] (3 mg/kg i.p.) is reported as “had no effect”.

Regarding `COC(=O)N1CCC(CN2CCC(CNC(=O)c3cccc4[nH]c(C(C)C)nc34)CC2)CC1` [Compound 2, 4-(4-{[(2-isopropyl-1H-benzoimidazole-4-carbonyl)amino]methyl}-piperidin-1-ylmethyl)piperidine-1-carboxylic acid methyl ester], in assay [1] (setting [2]), the “effect on scopolamine-induced cognitive decline when administered alone” value is “Neither compound 2 at a dose of 0.01 mg/kg nor donepezil at a dose of 0.1 mg/kg were found to have a significant effect”. The “effect on scopolamine-induced memory impairment” value in assay [1] is recorded as “attenuated the memory impairment”. Besides, the “effect on scopolamine-induced memory impairment, mean escape latency day 3” value in assay [1] (setting [3]) is on record as “achieved statistical significance”; in assay [1] (setting [4]), “had no effect”. Also, the “effect on ability of rats” value in assay [1] (1 mg/kg i.p.) was “had no effect”. Besides, in assay [1], the “reversal of scopolamine-induced cognitive impairment with coadministered 5-HT4 antagonist” value is “abolished”. The “effect of antagonist GR113808 on compound-evoked sAPPα release” value at human 5-HT4(d) receptor (10 min 1 μM GR113808 before compound at 100 nM) is listed as “completely blocked”. At human 5-HT4(d) receptor (HEK293 cells with human 5-HT4(d) receptors and human APP695), the “sAPPα release, concentration dependence” value is on record as “concentration-dependent increase”. Further, the maximal response (Emax) (commonly the maximal effect, on the per cent scale that the assay sets) at human 5-HT4(d) receptor (read-out: Emax (% response relative to 1 μM 5-HT)) came to 103%.
